From patent US6620833B1, “Substituted benzimidazoles, production and use thereof as agents for combating parasitic protozoas” (Bayer Aktiengesellschaft, priority 1998, dated 2003)

Key:
Assay type in all cases: in vivo
Eimeria acervulina = test: Cage experiment on coccidiosis/chicks, E. acervulina readout; settings: first symbol of cell
Eimeria maxima = test: Cage experiment on coccidiosis/chicks, E. maxima readout; settings: second symbol of cell
Eimeria tenella = test: Cage experiment on coccidiosis/chicks, E. tenella readout; settings: third symbol of cell
Note: key: 2=full action; 1=slight action; 0=inactive; D=death.

Compound | Efficacy against Eimeria acervulina (Eimeria acervulina; Table 4, dose 2.5 ppm) | Efficacy against Eimeria acervulina (Eimeria acervulina; Table 4, dose 5 ppm) | Efficacy against Eimeria acervulina (Eimeria acervulina; Table 4, dose 10 ppm) | Efficacy against Eimeria maxima (Eimeria maxima; Table 4, dose 2.5 ppm) | Efficacy against Eimeria maxima (Eimeria maxima; Table 4, dose 5 ppm) | Efficacy against Eimeria maxima (Eimeria maxima; Table 4, dose 10 ppm) | Efficacy against Eimeria tenella (Eimeria tenella; Table 4, dose 2.5 ppm) | Efficacy against Eimeria tenella (Eimeria tenella; Table 4, dose 5 ppm) | Efficacy against Eimeria tenella (Eimeria tenella; Table 4, dose 10 ppm)
CCCCN(Cn1c(C(F)(F)F)nc2c(Br)cc3c(c21)OC(F)(F)C(F)(F)O3)C(=O)OCC [Ex. 5] | 1 | 1 | 1 | 2 | 1 | 1 | 1 | 1 | 2
CCOC(=O)N(Cn1c(C(F)(F)F)nc2c(Br)cc3c(c21)OC(F)(F)C(F)(F)O3)C(C)C [Ex. 6] | 1 | 2 | 2 | 1 | 2 | 2 | 1 | 2 | 2
CCOC(=O)N(Cn1c(C(F)(F)F)nc2c(Cl)cc3c(c21)OC(F)(F)C(F)(F)O3)C(C)C [Ex. 7] | 2 | 2 | 2 | 1 | 2 | 2 | 2 | 2 | 1
COC(=O)N(Cn1c(C(F)(F)F)nc2c(Cl)cc3c(c21)OC(F)(F)C(F)(F)O3)c1ccccc1C [Ex. 8] | 0 | 0 | 2 | 0 | 1 | 2 | 0 | 1 | 2
CCOC(=O)N(Cn1c(C(F)(F)F)nc2c(Cl)cc3c(c21)OC(F)(F)C(F)(F)O3)C1CCCCC1 [Ex. 9] | 0 | 2 | 2 | 1 | 2 | 2 | 1 | 1 | 2
